Source: patent publication US20140100183A1, “CENTRAL ADMINISTRATION OF STABLE FORMULATIONS OF THERAPEUTIC AGENTS FOR CNS CONDITIONS” (The Regents of the University of Colorado, a body corporate, priority 2006, published 2014)
Values joined by “and” are separate entries in the source; they are usually repeats but may differ in a detail not shown here. Equal values may be shown once. Read-outs that look alike come from different tables or passages of the source.

Experiments:
[1] = system: pentylenetetrazole (PTZ) seizure induction in rats; test: Pentylenetetrazole (PTZ) seizure induction model, ICV administration; assay type: in vivo, rat; conditions: for % Change: drug group vs vehicle group (-V); for Rodent ICV dose: effective daily dose, blocking seizures; for Efficacy: effective in blocking seizures
Description: Rats are anesthetized, placed in a stereotaxic instrument and a burr hole opened over one anterior lateral ventricle. A cannula is lowered to the ventricle and 5 μl of solution containing the drug is injected into the ventricle over 10 minutes. The incision is then closed and the animal allowed to regain consciousness and remain conscious for 10 minutes. After 10 minutes has elapsed, pentylenetetrazole (PTZ, 10 mg/ml in saline) is injected through a tail-vein catheter at a constant rate of infusion (1 ml/min, Razel syringe pump) until a motor seizure is induced. PTZ seizures are identified as myoclonic jerking followed by clonus and tonus. The time from the initial application of PTZ to the first clonic seizure (i.e., forelimb clonus) is measured and defined as “latency to seiqure onset”. The total amount of PTZ infused is calculated and then divided by each rat;s body weight to obtain the dose (mg/kg) of PTZ. The dose required to attain status epilepticus is compared to the PTZ dose without antiseizure medication.

animals = test: Behavioral toxicology: openfield, elevated plus, ataxia; assay type: in vivo
Description: Several animal models as described below were used to determine the efficacy of formulations containing different concentrations of the drug. The animals were also tested for toxic effects as described in the table, below.
All animals are assessed for ataxia, which is a measure of altered gate and ability to change body position. They are also placed on their acks and time to “righting” measured.

[2] = system: patients diagnosed with epilepsy disorders; test: ICV or cisterna magna treatment of epilepsy (Example 6); assay type: in vivo, human; conditions: central administration, 0.01 to 0.1 mg per hour, 1 week
Description: After 1 week of treatment, epileptic frequency is reduced.

human = conditions: cited from earlier work
[3] = qualitative, solvents as given in the source; cited from earlier work
[4] = system: sensory inhibition deficits in DBA/2 mice; test: Sensory inhibition (paired auditory stimuli, TC ratio) after acute ICV administration; assay type: in vivo, mouse; conditions: for conditioning amplitude / test amplitude: vs baseline; for Rodent ICV dose: effective daily dose, mice
Description: The following methods were used to record the sensory inhibition.
The deficit in sensory inhibition can be quantified using the paired stimulus paradigm in which 2 identical stimuli are delivered 0.5 seconds apart and the electrophysiological response to each is recorded. In normal individuals, the response to the second, or test, stimulus, occurring 50 msec after stimulus onset, is reduced compared to the response to the first, or conditioning stimulus. However, schizophrenia patients have similar magnitude responses to both stimuli: The “TC ratio” is calculated by dividing the test amplitude by the conditioning amplitude. […] In normal individuals, the TC ratio is generally less than 0.4 while schizophrenia patients commonly have TC ratios above 0.5 and often approaching or exceeding 1.0.
In the present study, briefly, 5 baseline records were obtained in response to the paired auditory stimuli, prior to drug administration. […] Recordings were obtained at 5 minute intervals for 90 minutes post injection. Data analyzed included the amplitude of the response to the first stimulus (conditioning amplitude), amplitude of the response to the second stimulus (test amplitude) and the TC ratio (test amplitude/conditioning amplitude). This final parameter gives a measure of the level of inhibition in the circuit initiated by the conditioning stimulus. […] DBA/2 mice routinely have TC ratios of ≧0.8.

[5] = system: sensory inhibition deficits in DBA/2 mice; test: Chronic ICV clozapine (7 day minipump), sensory inhibition; assay type: in vivo, mouse; conditions: 0.25 μl/hr for 7 days
Description: DBA/2 mice are implanted with a chronic indwelling cannula aimed at one anterior lateral ventricle (Alzet Brain Infusion system) which is connected to an osmotic minipump delivering 0.25 μl/hr for 7 days. On the 7th day, the mouse is anesthetized, placed in a stereotaxic instrument, a burr hole opened in the skull over the contralateral dorsal hippocampus and a recording electrode lowered to the CA3 region of the hippocampus. Evoked EEG responses to closely paired (0.5 msec apart) identical tones are recorded.

[6] = system: prenatally stressed Sprague Dawley rats; test: Chronic ICV clozapine by osmotic minipump in schizophrenia model (Example 3); assay type: in vivo, rat
Description: After 1 week recovery from surgery, at least 10 baseline recording sessions are performed in which 30 pairs of identical auditory click stimuli are presented and the evoked potentials are recorded and averaged. This establishes the baseline parameters for sensory inhibition in the rats.
Formulations described above are administered into the ventricles using an osmotic minipump to deliver 0.5 μl/hr for 14 days. The rats have a chronic recording electrode implant that allows repeated awake recording over several days and a ventricular cannula to permit withdrawal of CSF. Sensory inhibition is recorded on alternate days for the 14 days of the pump duration. At the end of each recording session, blood and CSF are sampled under light anesthesia to assess levels of the active agent. Brain penetration and distribution are assessed using tritiated active agent/excipient complex in the osmotic minipump in a separate group of animals. […] A rat model of deficient sensory inhibition is used which allows us to sample both fluids repeatedly over several days.
Two days later, alternate day recording of sensory inhibition begins and continues for the full 14 days of the pump. […] Data are analyzed by analysis of variance and appropriate a posteriori analyses performed wherever significant differences are found (p<0.05).

[7] = for prevention of precipitation on titration: even at very alkaline pH (≈11)
[8] = cited from earlier work
schizophrenia patients = conditions: Iqbal et al. 2003; cited from earlier work
[9] = system: primary mouse cortical neuron cultures; test: Toxicity in primary mouse cortical neuron cultures (MTT)
Description: In addition, a preliminary assessment of the toxicity of cyclodextrin in primary mouse cortical neuron cultures was performed. […] After dissection, and cellular dissociation, the cells were washed with Dulbecco's Modified Eagle's Medium with 10% fetal bovine serum. Following recentrifugation, the cells resuspended in plating medium, counted with trypan blue and plated at a constant density of 6.5×10^4 cells per well in a 96-well pre-coated plate. […] The cultures were maintained at 37° C. in a humidified atmosphere of 5% CO2. […] The cultures were incubated and cell toxicity assayed at 24, 48 and 72 hours. Viability was assessed by the MTT (3-(4,5 diethylthiazol-2-yl)-2,5)diphenyltetrazolium bromide) assay, CellTiter 96 Non-radioactive cell Proliferation Assay (Promega, Madison Wis.) and by visual examination.

[10] = system: anxiety in rats (elevated plus maze, open field); test: Elevated plus maze and open field conflicts test after ICV antidepressants; assay type: in vivo, rat; conditions: elevated plus maze and open field conflicts test
Description: Various antidepressants were injected via ICV, and animals monitored in standard elevated plus maze and open field conflicts test.
Rats are placed in the center of a pluz-shaped maze. The arms are 13 cm wide; two arms were open and two are enclosed by 32 cm high walls. The maze is elevated off the flor by 51 cm. The percent of time and distance traveled in each type of arm over the 4 minute test period is calculated by computer. Increased time and distance traveled in the open arms is thought to reflect anxiolytic activity.
Rats are place against 1 side of a 104 cm square box with 32 cm sides. The activity of the rat is monitored by computer over a 4 minute testing period. A computer divides the openfied space into 25 equal squares arranged into an outer:ring” of 16 squares, a middle region of 8 squares and a central square. The percent of time and distarnce traveled in the center square by rats receiving the drug are calculated and compared to rats receiving a saline control. Increased time and distance traveled in the center square is thought to reflect anxiolytic activity.

[11] = rodent ICV dose vs human oral equivalent
[12] = human dose is IV not oral for this drug

NC(=O)OCC(COC(N)=O)c1ccccc1 [Felbamate, 2-phenyl-1,3-propanediol dicarbamate]
% Change [1]: 60% | Rodent ICV dose [1]: 0.08242 mg/kg | Rodent ICV dose ([1]; listed as felbamate): about 0.08242 mg/kg | Efficacy [1]: effective in blocking | % of Oral dose [1, 11]: 0.4% | Highest non-toxic concentration (animals; Behavioral: openfield, elevated plus, ataxia): 0.056 mg/mL | alleviation of seizures [2]: efficacious therapeutic alleviation of seizures | Human oral equivalent (human; effective daily dose, oral): 20 mg/kg | Comments: solubility [3]: Freely soluble in water and in alcohol; soluble in acetone; insoluble in ether and in benzene

CN1CCN(C2=Nc3cc(Cl)ccc3Nc3ccccc32)CC1 [Clozapine, 8-chloro-11-(4-methyl-1-piperazinyl)-5H-dibenzo [b,e][1,4] diazepine]
conditioning amplitude ([4]; 0.5 μg ICV): increases in conditioning amplitude, though the latter did not reach statistical significance | test amplitude ([4]; 0.5 μg ICV): decreases in test amplitude | time post injection with significantly reduced test amplitudes ([4]; 1.0 μg ICV): 35 min | conditioning amplitude ([4]; 1.0 μg ICV): significantly increased conditioning amplitudes | test amplitude ([4]; 1.0 μg ICV): significantly reduced test amplitudes | Efficacy ([4]; acute effective dose for improvement of sensory inhibition deficits in mice): acute effective | Rodent ICV dose [4]: 0.040 mg/kg | Rodent ICV dose ([4]; listed as clozapine): about 0.040 mg/kg | % of Oral dose [4, 11]: 0.5% | ICV dose lower than systemically administered dose ([4]; same mouse model, vs Simosky et al 2002): > 1000 fold | response to the second tone [5]: significant decreases in the response to the second tone | Highest non-toxic concentration (animals; rat, in vivo): 50 mg/mL | plasma levels ([6]; 0.5 μl/hr for 14 days, steady state): extremely low or not detectable | sensory inhibition ([6]; 14 days): improvement in sensory inhibition | pH until which addition of NaOH has little effect on solubility ([7]; acidified with HCl, no solubility enhancing agent): ~6.5 | prevention of precipitation on titration ([7]; cyclodextrin): prevented clozapine precipitation | pH up to which precipitation is inhibited ([7]; cyclodextrin-to-clozapine molar ratio of 2:1): ≤ 9.0 | prevention of precipitation on titration ([7]; octyl glucoside): prevented clozapine precipitation | prevention of precipitation on titration above neutral pH ([7]; polyethylene glycol (PEG 4000)): not able to prevent clozapine precipitation | prevention of precipitation on titration above neutral pH ([7]; polyvinylpyrrolidone (PVP 10K)): not able to prevent clozapine precipitation | accumulation of drug in peripheral tissues and organs (rats; chronic ICV versus intraperitoneal (IP)): significantly less accumulation of drug in peripheral tissues and organs | CNS pathology and systemic toxicity (rats; rat, in vivo): minimal or no CNS pathology and low systemic toxicity | partition coefficient ([8]; acidic conditions, pH 2): 0.4 | Solubility in water [8]: practically insoluble | octanol-to-water partition coefficient ([8]; pH 7.4 (Merck Index, 2004)): 1000 | Human oral equivalent (human; effective daily dose, oral): 7.5 mg/kg | patients who discontinue due to systemic side effects (schizophrenia patients): 17% | Highest non-toxic concentration ([9]; In vitro primary cortical cell culture): 10 µg/mL | final concentration at which significant toxicity was observed ([9]; clozapine formulated with cyclodextrin): ≥ 10 μg/mL and ≥ 30 μM

Nc1ncnc2c1ncn2[C@@H]1O[C@H](CO)[C@@H](O)[C@H]1O [Adenosine]
% Change [1]: 90% | Rodent ICV dose [1]: 0.001336 mg/kg | Efficacy [1]: effective in blocking | % of Oral dose [1, 12]: 1.3% | efficacy following ICV administration [10]: efficacy | Highest non-toxic concentration (animals; rat, in vivo): 0.0694 mg/mL | Human oral equivalent (human; [12]): 0.1 mg/kg
